From patent US20020137929A1, “1 - (3-heterocyclylphenyl) isothiourea, -isourea, -guanidine and -amidine herbicidal agents” (Intellectual Property Department, BASF Aktiengesellschaft, priority 1998, published 2002)

Assays:
[1] = test system: AMBEL (Ragweed, Common); experiment: Preemergence herbicidal evaluation; format: in vivo, Ambrosia artemisifolia; details: rated 4-5 weeks after treatment; for AMBEL rating: preemergence, 0-9 scale
Summary of the method: (§1)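 Herbicidal effect scored visually, 0-9, at 4 to 5 weeks against a control; compound applied preemergence by aqueous acetone spray to seeded soil at about 0.0156 to 0.500 kg/ha.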

[2] = test system: IPOHE (Morningglory, Ivyleaf); experiment: Postemergence herbicidal evaluation; format: in vivo, Ipomoea hederacea; details: postemergence
Summary of the method: (§2)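 Each compound, dispersed in an acetone/water mix (50/50) carrying 0.5% TWEEN 20, is nozzle-sprayed at 40 psi on approximately two-week-old seedlings at about 0.0156–0.500 kg/ha. Plants are assessed 4–5 weeks afterward on a 0–9 scale relative to control; duplicate tests are averaged.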

[3] = test system: CASOB (Sicklepod); experiment: Postemergence herbicidal evaluation; format: in vivo, Cassia obtusifolia; details: postemergence
Summary of the method: as §2

[4] = test system: CHEAL (Lambsquarters, Common); experiment: Postemergence herbicidal evaluation; format: in vivo, Chenopodium album; details: postemergence
Summary of the method: as §2

[5] = test system: GLXMAW (Soybean, Williams); experiment: Postemergence herbicidal evaluation; format: in vivo, Glycine max, (L.) Merr. cv Williams; details: postemergence
Summary of the method: as §2

[6] = test system: GLXMAW (Soybean, Williams); experiment: Preemergence herbicidal evaluation; format: in vivo, Glycine max, (L.) Merr. cv Williams; details: rated 4-5 weeks after treatment; for GLXMAW rating: preemergence, 0-9 scale
Summary of the method: as §1

[7] = test system: TRZAWR (Wheat, Winter, cv Riband); experiment: Postemergence herbicidal evaluation; format: in vivo, Triticum aestivum; details: postemergence
Summary of the method: as §2

[8] = test system: CASOB (Sicklepod); experiment: Preemergence herbicidal evaluation; format: in vivo, Cassia obtusifolia; details: rated 4-5 weeks after treatment; for CASOB rating: preemergence, 0-9 scale
Summary of the method: as §1

[9] = test system: ORYSAT (Rice, Tebonnet); experiment: Preemergence herbicidal evaluation; format: in vivo, Oryza sativa, (L.) Tebonnet; details: rated 4-5 weeks after treatment; for ORYSAT rating: preemergence, 0-9 scale
Summary of the method: as §1

[10] = test system: IPOHE (Morningglory, Ivyleaf); experiment: Preemergence herbicidal evaluation; format: in vivo, Ipomoea hederacea; details: rated 4-5 weeks after treatment; for IPOHE rating: preemergence, 0-9 scale
Summary of the method: as §1

[11] = test system: AMBEL (Ragweed, Common); experiment: Postemergence herbicidal evaluation; format: in vivo, Ambrosia artemisifolia; details: postemergence
Summary of the method: as §2

[12] = test system: ABUTH (Velvetleaf); experiment: Preemergence herbicidal evaluation; format: in vivo, Abutilon theophrasti; details: rated 4-5 weeks after treatment; for ABUTH rating: preemergence, 0-9 scale
Summary of the method: as §1

[13] = test system: SAGPY (Arrowhead (Pygmaea)); experiment: Preemergence weed control under flooded paddy conditions; format: in vivo, Sagittaria pygmaea; details: rated 3-4 weeks after treatment
Summary of the method: (§3)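 Flooded-pot preemergence screen with silt loam and seeds in the upper 0.5 cm. Dose about 0.0313 to 0.500 kg/ha, delivered into flood water; visual 0-9 score after 3 to 4 weeks.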

[14] = test system: CHEAL (Lambsquarters, Common); experiment: Preemergence herbicidal evaluation; format: in vivo, Chenopodium album; details: rated 4-5 weeks after treatment; for CHEAL rating: preemergence, 0-9 scale
Summary of the method: as §1

[15] = test system: MOOVA (Monochoria); experiment: Preemergence weed control under flooded paddy conditions; format: in vivo, Monochoria vaginalis; details: rated 3-4 weeks after treatment
Summary of the method: as §3

[16] = test system: ECHCG (Barnyardgrass); experiment: Postemergence herbicidal evaluation; format: in vivo, Echinochloa crus-galli; details: postemergence
Summary of the method: as §2

CCC1SC(=Nc2cc(-n3c(=O)cc(C(F)(F)F)n(C)c3=O)c(F)cc2Cl)N(C)C1=O (stereo not shown) [Compound 10]
AMBEL preemergence herbicidal rating ([1]; rate 0.0156 kg/ha): 0.3 | AMBEL preemergence herbicidal rating ([1]; rate 0.0313 kg/ha): 0.3 | AMBEL preemergence herbicidal rating ([1]; rate 0.0625 kg/ha): 3.3 | AMBEL preemergence herbicidal rating ([1]; rate 0.1250 kg/ha): 4.7 | AMBEL preemergence herbicidal rating ([1]; rate 0.2500 kg/ha): 6.3 | IPOHE herbicidal rating ([2]; rate 0.0156 kg/ha): 3.0 | IPOHE herbicidal rating ([2]; rate 0.0313 kg/ha): 7.0 | IPOHE herbicidal rating ([2]; rate 0.0625 kg/ha): 9.0 | IPOHE herbicidal rating ([2]; rate 0.1250 kg/ha): 8.0 | CASOB herbicidal rating ([3]; rate 0.0156 kg/ha): 0.0 | CASOB herbicidal rating ([3]; rate 0.0313 kg/ha): 0.0 | CASOB herbicidal rating ([3]; rate 0.0625 kg/ha): 0.5 | CASOB herbicidal rating ([3]; rate 0.1250 kg/ha): 3.0 | CHEAL herbicidal rating ([4]; rate 0.0156 kg/ha): 7.0 | CHEAL herbicidal rating ([4]; rate 0.0313 kg/ha): 7.0 | CHEAL herbicidal rating ([4]; rate 0.0625 kg/ha): 9.0 | CHEAL herbicidal rating ([4]; rate 0.1250 kg/ha): 9.0 | GLXMAW herbicidal rating ([5]; rate 0.0156 kg/ha): 4.0 | GLXMAW herbicidal rating ([5]; rate 0.0313 kg/ha): 4.5 | GLXMAW herbicidal rating ([5]; rate 0.0625 kg/ha): 5.3 | GLXMAW herbicidal rating ([5]; rate 0.1250 kg/ha): 5.8 | GLXMAW preemergence herbicidal rating ([6]; rate 0.0156 kg/ha): 2.0 | GLXMAW preemergence herbicidal rating ([6]; rate 0.0313 kg/ha): 2.3 | GLXMAW preemergence herbicidal rating ([6]; rate 0.0625 kg/ha): 3.7 | GLXMAW preemergence herbicidal rating ([6]; rate 0.1250 kg/ha): 6.7 | GLXMAW preemergence herbicidal rating ([6]; rate 0.2500 kg/ha): 7.0 | TRZAWR herbicidal rating ([7]; rate 0.0156 kg/ha): 2.5 | TRZAWR herbicidal rating ([7]; rate 0.0313 kg/ha): 3.3 | TRZAWR herbicidal rating ([7]; rate 0.0625 kg/ha): 3.3 | TRZAWR herbicidal rating ([7]; rate 0.1250 kg/ha): 3.5 | CASOB preemergence herbicidal rating ([8]; rate 0.0156 kg/ha): 0.0 | CASOB preemergence herbicidal rating ([8]; rate 0.0313 kg/ha): 0.7 | CASOB preemergence herbicidal rating ([8]; rate 0.0625 kg/ha): 0.7 | CASOB preemergence herbicidal rating ([8]; rate 0.1250 kg/ha): 1.3 | CASOB preemergence herbicidal rating ([8]; rate 0.2500 kg/ha): 3.3 | ORYSAT preemergence herbicidal rating ([9]; rate 0.0156 kg/ha): 1.0 | ORYSAT preemergence herbicidal rating ([9]; rate 0.0313 kg/ha): 3.0 | ORYSAT preemergence herbicidal rating ([9]; rate 0.0625 kg/ha): 4.5 | ORYSAT preemergence herbicidal rating ([9]; rate 0.1250 kg/ha): 6.5 | ORYSAT preemergence herbicidal rating ([9]; rate 0.2500 kg/ha): 7.5 | IPOHE preemergence herbicidal rating ([10]; rate 0.0156 kg/ha): 2.0 | IPOHE preemergence herbicidal rating ([10]; rate 0.0313 kg/ha): 3.0 | IPOHE preemergence herbicidal rating ([10]; rate 0.0625 kg/ha): 5.3 | IPOHE preemergence herbicidal rating ([10]; rate 0.1250 kg/ha): 8.3 | IPOHE preemergence herbicidal rating ([10]; rate 0.2500 kg/ha): 9.0 | AMBEL herbicidal rating ([11]; rate 0.0156 kg/ha): 0.5 | AMBEL herbicidal rating ([11]; rate 0.0313 kg/ha): 1.0 | AMBEL herbicidal rating ([11]; rate 0.0625 kg/ha): 2.0 | AMBEL herbicidal rating ([11]; rate 0.1250 kg/ha): 4.5 | ABUTH preemergence herbicidal rating ([12]; rate 0.0156 kg/ha): 5.5 | ABUTH preemergence herbicidal rating ([12]; rate 0.0313 kg/ha): 8.0 | ABUTH preemergence herbicidal rating ([12]; rate 0.0625 kg/ha): 9.0 | ABUTH preemergence herbicidal rating ([12]; rate 0.1250 kg/ha): 9.0 | ABUTH preemergence herbicidal rating ([12]; rate 0.2500 kg/ha): 9.0 | Herbicidal rating SAGPY ([13]; 0.0313 kg/ha): 0.0 | Herbicidal rating SAGPY ([13]; 0.0625 kg/ha): 0.0 | Herbicidal rating SAGPY ([13]; 0.1250 kg/ha): 0.0 | Herbicidal rating SAGPY ([13]; 0.2500 kg/ha): 0.0 | CHEAL preemergence herbicidal rating ([14]; rate 0.0156 kg/ha): 9.0 | CHEAL preemergence herbicidal rating ([14]; rate 0.0313 kg/ha): 9.0 | CHEAL preemergence herbicidal rating ([14]; rate 0.0625 kg/ha): 9.0 | CHEAL preemergence herbicidal rating ([14]; rate 0.1250 kg/ha): 9.0 | CHEAL preemergence herbicidal rating ([14]; rate 0.2500 kg/ha): 9.0 | Herbicidal rating MOOVA ([15]; 0.0313 kg/ha): 9.0 | Herbicidal rating MOOVA ([15]; 0.0625 kg/ha): 9.0 | Herbicidal rating MOOVA ([15]; 0.1250 kg/ha): 9.0 | Herbicidal rating MOOVA ([15]; 0.2500 kg/ha): 9.0 | ECHCG herbicidal rating ([16]; rate 0.0156 kg/ha): 0.0 | ECHCG herbicidal rating ([16]; rate 0.0313 kg/ha): 0.0 | ECHCG herbicidal rating ([16]; rate 0.0625 kg/ha): 0.0 | ECHCG herbicidal rating ([16]; rate 0.1250 kg/ha): 1.0

CN1C(=O)C(CC(=O)NS(C)(=O)=O)SC1=Nc1cc(-n2c(=O)cc(C(F)(F)F)n(C)c2=O)c(F)cc1Cl (stereo not shown) [Compound 97, 2-{{2-Chloro-5-[3,6-dihydro-3-methyl-2,6-dioxo-4-(trifluoromethyl)-1(2H)-pyrimidinyl]-4-fluorophenyl}imino}-3-methyl-N-(methylsulfonyl)-4-oxo-5-thiazolidineacetamide]
AMBEL rating ([1]; 0.1250 kg/ha): 0.0 | AMBEL rating ([1]; 0.2500 kg/ha): 4.0 | AMBEL rating ([1]; 0.5000 kg/ha): 4.0 | IPOHE herbicidal rating ([2]; rate 0.0156 kg/ha): 7.0 | IPOHE herbicidal rating ([2]; rate 0.0313 kg/ha): 9.0 | IPOHE herbicidal rating ([2]; rate 0.0625 kg/ha): 9.0 | IPOHE herbicidal rating ([2]; rate 0.1250 kg/ha): 9.0 | CASOB herbicidal rating ([3]; rate 0.0156 kg/ha): 0.0 | CASOB herbicidal rating ([3]; rate 0.0313 kg/ha): 0.0 | CASOB herbicidal rating ([3]; rate 0.0625 kg/ha): 0.0 | CASOB herbicidal rating ([3]; rate 0.1250 kg/ha): 1.0 | CHEAL herbicidal rating ([4]; rate 0.0156 kg/ha): 0.0 | CHEAL herbicidal rating ([4]; rate 0.0313 kg/ha): 1.0 | CHEAL herbicidal rating ([4]; rate 0.0625 kg/ha): 4.0 | CHEAL herbicidal rating ([4]; rate 0.1250 kg/ha): 7.0 | GLXMAW herbicidal rating ([5]; rate 0.0156 kg/ha): 4.5 | GLXMAW herbicidal rating ([5]; rate 0.0313 kg/ha): 4.0 | GLXMAW herbicidal rating ([5]; rate 0.0625 kg/ha): 5.5 | GLXMAW herbicidal rating ([5]; rate 0.1250 kg/ha): 6.5 | GLXMAW rating ([6]; 0.1250 kg/ha): 0.0 | GLXMAW rating ([6]; 0.2500 kg/ha): 0.0 | GLXMAW rating ([6]; 0.5000 kg/ha): 3.0 | TRZAWR herbicidal rating ([7]; rate 0.0156 kg/ha): 1.0 | TRZAWR herbicidal rating ([7]; rate 0.0313 kg/ha): 1.5 | TRZAWR herbicidal rating ([7]; rate 0.0625 kg/ha): 2.5 | TRZAWR herbicidal rating ([7]; rate 0.1250 kg/ha): 4.0 | CASOB rating ([8]; 0.1250 kg/ha): 0.0 | CASOB rating ([8]; 0.2500 kg/ha): 1.0 | CASOB rating ([8]; 0.5000 kg/ha): 3.0 | ORYSAT rating ([9]; 0.1250 kg/ha): 0.0 | ORYSAT rating ([9]; 0.2500 kg/ha): 1.0 | ORYSAT rating ([9]; 0.5000 kg/ha): 1.0 | IPOHE rating ([10]; 0.1250 kg/ha): 1.0 | IPOHE rating ([10]; 0.2500 kg/ha): 9.0 | IPOHE rating ([10]; 0.5000 kg/ha): 9.0 | AMBEL herbicidal rating ([11]; rate 0.0156 kg/ha): 0.0 | AMBEL herbicidal rating ([11]; rate 0.0313 kg/ha): 1.0 | AMBEL herbicidal rating ([11]; rate 0.0625 kg/ha): 4.0 | AMBEL herbicidal rating ([11]; rate 0.1250 kg/ha): 7.0 | ABUTH rating ([12]; 0.1250 kg/ha): 4.0 | ABUTH rating ([12]; 0.2500 kg/ha): 9.0 | ABUTH rating ([12]; 0.5000 kg/ha): 9.0 | CHEAL rating ([14]; 0.1250 kg/ha): 7.0 | CHEAL rating ([14]; 0.2500 kg/ha): 9.0 | CHEAL rating ([14]; 0.5000 kg/ha): 9.0 | MOOVA herbicidal effect rating ([15]; 0.0313 kg/ha): 9.0 | MOOVA herbicidal effect rating ([15]; 0.0625 kg/ha): 9.0 | MOOVA herbicidal effect rating ([15]; 0.1250 kg/ha): 9.0 | MOOVA herbicidal effect rating ([15]; 0.2500 kg/ha): 9.0 | ECHCG herbicidal rating ([16]; rate 0.0156 kg/ha): 1.0 | ECHCG herbicidal rating ([16]; rate 0.0313 kg/ha): 1.0 | ECHCG herbicidal rating ([16]; rate 0.0625 kg/ha): 3.0 | ECHCG herbicidal rating ([16]; rate 0.1250 kg/ha): 6.0
